Results as given in ChEMBL document CHEMBL4765295, “Synthesis, pharmacological profile and 2D-QSAR studies of curcumin-amino acid conjugates as potential drug candidates” (Eur J Med Chem, 2020).
Values joined by “and” are separate entries in the source; they are usually repeats but may differ in a detail not shown here. Equal entries are not always repeated.

test system: Rattus norvegicus; assay: Anti-inflammatory activity in Wistar rat assessed as inhibition of carrageenan-induced paw edema at 10 mg/kg, ip pretreated for 1 hr followed by carrageenan challenge and measured after 3 hr relative to control (reference value: 0.00 +/-0.1 %); format: functional; conditions: time 4 hrs

| SMILES | inhibition in vivo at 10 mg/kg [%] |
| --- | --- |
| COc1cc(/C=C/C(=O)/C=C(O)/C=C/c2ccc(OC(=O)[C@@H](C)NC(=O)OC(C)(C)C)c(OC)c2)ccc1OC(=O)[C@@H](C)NC(=O)OC(C)(C)C | 39 |

test system: Rattus norvegicus; assay: Antiinflammatory activity in Wistar rat model of carrageenan-induced paw edema assessed as reduction in thickness of paw edema at 10 mg/kg, ip pretreated for 1 hr followed by carrageenan challenge and measured after 4 hrs (reference value: 1.40 +/-0.10 mm); format: functional; conditions: time 5 hrs

| SMILES | Activity [mm] |
| --- | --- |
| COc1cc(/C=C/C(=O)/C=C(O)/C=C/c2ccc(OC(=O)[C@@H](C)NC(=O)OC(C)(C)C)c(OC)c2)ccc1OC(=O)[C@@H](C)NC(=O)OC(C)(C)C | 0.81 |

test system: Salmonella typhimurium; assay: Antibacterial activity against Salmonella typhimurium ATCC 19430 incubated for 18 hrs by agar dilution assay; format: functional, Salmonella enterica subsp. enterica serovar Typhimurium; conditions: Salmonella enterica

| MIC | SMILES |
| --- | --- |
| 0.25 µg/mL and 0.352 µM | COc1cc(/C=C/C(=O)/C=C(O)/C=C/c2ccc(OC(=O)[C@@H](C)NC(=O)OC(C)(C)C)c(OC)c2)ccc1OC(=O)[C@@H](C)NC(=O)OC(C)(C)C |

test system: Pseudomonas aeruginosa; assay: Antibacterial activity against Pseudomonas aeruginosa ATCC 27853 incubated for 18 hrs by agar dilution assay; format: functional; conditions: not given

| MIC | SMILES |
| --- | --- |
| 0.25 µg/mL and 0.352 µM | COc1cc(/C=C/C(=O)/C=C(O)/C=C/c2ccc(OC(=O)[C@@H](C)NC(=O)OC(C)(C)C)c(OC)c2)ccc1OC(=O)[C@@H](C)NC(=O)OC(C)(C)C |

test system: Rattus norvegicus; assay: Anti-inflammatory activity in Wistar rat assessed as inhibition of carrageenan-induced paw edema at 10 mg/kg, ip pretreated for 1 hr followed by carrageenan challenge and measured after 24 hr relative to control (reference value: 0.00 +/-0.3 %); format: functional; conditions: time 25 hrs

| SMILES | inhibition in vivo at 10 mg/kg [%] |
| --- | --- |
| COc1cc(/C=C/C(=O)/C=C(O)/C=C/c2ccc(OC(=O)[C@@H](C)NC(=O)OC(C)(C)C)c(OC)c2)ccc1OC(=O)[C@@H](C)NC(=O)OC(C)(C)C | 37 |

test system: Peritoneal macrophage; assay: Antiinflammatory activity in […] mouse Peritoneal macrophages assessed as inhibition of LPS-induced NO production at 10 uM preincubated for 1 hr followed by LPS stimulation measured after 24 hrs by Griess method relative to control (reference value: 0.0 %); format: functional; design: scale not given: the % may be the effect or the level left; conditions: time 25 hrs

| SMILES | Activity [%] |
| --- | --- |
| COc1cc(/C=C/C(=O)/C=C(O)/C=C/c2ccc(OC(=O)[C@@H](C)NC(=O)OC(C)(C)C)c(OC)c2)ccc1OC(=O)[C@@H](C)NC(=O)OC(C)(C)C | 23.82 |

test system: Rattus norvegicus; assay: Antiinflammatory activity in Wistar rat model of carrageenan-induced paw edema assessed as reduction in thickness of paw edema at 10 mg/kg, ip pretreated for 1 hr followed by carrageenan challenge and measured after 1 hr (reference value: 2.41 +/-0.05 mm); format: functional; conditions: time 1 hr after carrageenan

| SMILES | Activity [mm] |
| --- | --- |
| COc1cc(/C=C/C(=O)/C=C(O)/C=C/c2ccc(OC(=O)[C@@H](C)NC(=O)OC(C)(C)C)c(OC)c2)ccc1OC(=O)[C@@H](C)NC(=O)OC(C)(C)C | 1.87 |

test system: Rattus norvegicus; assay: Antiinflammatory activity in Wistar rat model of carrageenan-induced paw edema assessed as reduction in thickness of paw edema at 10 mg/kg, ip pretreated for 1 hr followed by carrageenan challenge and measured after 2 hrs (reference value: 2.06 +/-0.09 mm); format: functional; conditions: time 3 hrs

| SMILES | Activity [mm] |
| --- | --- |
| COc1cc(/C=C/C(=O)/C=C(O)/C=C/c2ccc(OC(=O)[C@@H](C)NC(=O)OC(C)(C)C)c(OC)c2)ccc1OC(=O)[C@@H](C)NC(=O)OC(C)(C)C | 1.46 |

test system: Peritoneal macrophage; assay: Antiinflammatory activity in […] mouse Peritoneal macrophages assessed as reduction in LPS-induced NO production by measuring reduction in stimulation index at 10 uM preincubated for 1 hr followed by LPS stimulation measured after 24 hrs by Griess method (reference value: 27.31 +/- 2.56 uM); format: functional; conditions: time 25 hrs

| SMILES | Activity [µM] |
| --- | --- |
| COc1cc(/C=C/C(=O)/C=C(O)/C=C/c2ccc(OC(=O)[C@@H](C)NC(=O)OC(C)(C)C)c(OC)c2)ccc1OC(=O)[C@@H](C)NC(=O)OC(C)(C)C | 20.81 |

test system: Rattus norvegicus; assay: Antiinflammatory activity in Wistar rat model of carrageenan-induced paw edema assessed as reduction in thickness of paw edema at 10 mg/kg, ip pretreated for 1 hr followed by carrageenan challenge and measured after 24 hrs (reference value: 0.83 +/-0.08 mm); format: functional; conditions: time 25 hrs

| SMILES | Activity [mm] |
| --- | --- |
| COc1cc(/C=C/C(=O)/C=C(O)/C=C/c2ccc(OC(=O)[C@@H](C)NC(=O)OC(C)(C)C)c(OC)c2)ccc1OC(=O)[C@@H](C)NC(=O)OC(C)(C)C | 0.52 |

test system: Streptococcus pyogenes; assay: Antibacterial activity against Streptococcus pyogenes ATCC 19615 incubated for 18 hrs by agar dilution method; format: functional; conditions: not given

| MIC | SMILES |
| --- | --- |
| 1 µg/mL and 1.41 µM | COc1cc(/C=C/C(=O)/C=C(O)/C=C/c2ccc(OC(=O)[C@@H](C)NC(=O)OC(C)(C)C)c(OC)c2)ccc1OC(=O)[C@@H](C)NC(=O)OC(C)(C)C |

test system: Rattus norvegicus; assay: Anti-inflammatory activity in Wistar rat assessed as inhibition of carrageenan-induced paw edema at 10 mg/kg, ip pretreated for 1 hr followed by carrageenan challenge and measured after 1 hr relative to control (reference value: 0.00 +/-0.02 %); format: functional; conditions: time 2 hrs

| SMILES | inhibition in vivo at 10 mg/kg [%] |
| --- | --- |
| COc1cc(/C=C/C(=O)/C=C(O)/C=C/c2ccc(OC(=O)[C@@H](C)NC(=O)OC(C)(C)C)c(OC)c2)ccc1OC(=O)[C@@H](C)NC(=O)OC(C)(C)C | 22 |

test system: Rattus norvegicus; assay: Anti-inflammatory activity in Wistar rat assessed as inhibition of carrageenan-induced paw edema at 10 mg/kg, ip pretreated for 1 hr followed by carrageenan challenge and measured after 2 hr relative to control (reference value: 0.00 +/-0.03 %); format: functional; conditions: time 3 hrs

| SMILES | inhibition in vivo at 10 mg/kg [%] |
| --- | --- |
| COc1cc(/C=C/C(=O)/C=C(O)/C=C/c2ccc(OC(=O)[C@@H](C)NC(=O)OC(C)(C)C)c(OC)c2)ccc1OC(=O)[C@@H](C)NC(=O)OC(C)(C)C | 29 |

test system: Staphylococcus aureus; assay: Antibacterial activity against Staphylococcus aureus ATCC 25923 incubated for 18 hrs by agar dilution method; format: functional; conditions: not given

| MIC | SMILES |
| --- | --- |
| 0.125 µg/mL and 0.176 µM | COc1cc(/C=C/C(=O)/C=C(O)/C=C/c2ccc(OC(=O)[C@@H](C)NC(=O)OC(C)(C)C)c(OC)c2)ccc1OC(=O)[C@@H](C)NC(=O)OC(C)(C)C |

test system: Splenocyte; assay: Immunomodulatory activity in Swiss albino mouse splenocytes assessed as cell viability at 10 uM by measuring stimulation index incubated for 72 hrs in presence of mitogenic stimulus phytohaemagglutinin by MTT assay (reference value: 1.00 +/- 0.24); format: functional; conditions: not given

| SMILES | Activity_index |
| --- | --- |
| COc1cc(/C=C/C(=O)/C=C(O)/C=C/c2ccc(OC(=O)[C@@H](C)NC(=O)OC(C)(C)C)c(OC)c2)ccc1OC(=O)[C@@H](C)NC(=O)OC(C)(C)C | 2.07 |

test system: Rattus norvegicus; assay: Anti-inflammatory activity in Wistar rat assessed as inhibition of carrageenan-induced paw edema at 10 mg/kg, ip pretreated for 1 hr followed by carrageenan challenge and measured after 4 hr relative to indomethacin; format: functional; conditions: time 5 hrs

| SMILES | inhibition in vivo at 10 mg/kg [%] |
| --- | --- |
| COc1cc(/C=C/C(=O)/C=C(O)/C=C/c2ccc(OC(=O)[C@@H](C)NC(=O)OC(C)(C)C)c(OC)c2)ccc1OC(=O)[C@@H](C)NC(=O)OC(C)(C)C | 48 |

test system: Rattus norvegicus; assay: Antiinflammatory activity in Wistar rat model of carrageenan-induced paw edema assessed as reduction in thickness of paw edema at 10 mg/kg, ip pretreated for 1 hr followed by carrageenan challenge and measured after 3 hrs (reference value: 1.79 +/-0.07 mm); format: functional; conditions: time 4 hrs

| SMILES | Activity [mm] |
| --- | --- |
| COc1cc(/C=C/C(=O)/C=C(O)/C=C/c2ccc(OC(=O)[C@@H](C)NC(=O)OC(C)(C)C)c(OC)c2)ccc1OC(=O)[C@@H](C)NC(=O)OC(C)(C)C | 1.09 |

test system: Candida albicans; assay: Antifungal activity against Candida albicans incubated for 18 to 24 hrs by CLSI method; format: functional; conditions: time 18-24 hrs

| MIC | SMILES |
| --- | --- |
| 0.5 µg/mL and 0.703 µM | COc1cc(/C=C/C(=O)/C=C(O)/C=C/c2ccc(OC(=O)[C@@H](C)NC(=O)OC(C)(C)C)c(OC)c2)ccc1OC(=O)[C@@H](C)NC(=O)OC(C)(C)C |

test system: Rattus norvegicus; assay: Anti-inflammatory activity in Wistar rat assessed as inhibition of carrageenan-induced paw edema at 10 mg/kg, ip pretreated for 1 hr followed by carrageenan challenge and measured after 4 hr relative to control (reference value: 0.00 +/-0.4 %); format: functional; conditions: time 5 hrs

| SMILES | inhibition in vivo at 10 mg/kg [%] |
| --- | --- |
| COc1cc(/C=C/C(=O)/C=C(O)/C=C/c2ccc(OC(=O)[C@@H](C)NC(=O)OC(C)(C)C)c(OC)c2)ccc1OC(=O)[C@@H](C)NC(=O)OC(C)(C)C | 42 |

test system: Splenocyte; assay: Immunomodulatory activity in Swiss albino mouse splenocytes assessed as cell viability at 10 uM by measuring inhibition of stimulation index incubated for 72 hrs in presence of mitogenic stimulus phytohaemagglutinin by MTT assay relative to indomethacin; format: functional; conditions: read-out: Activity

| SMILES | viability at 10 µM [%] |
| --- | --- |
| COc1cc(/C=C/C(=O)/C=C(O)/C=C/c2ccc(OC(=O)[C@@H](C)NC(=O)OC(C)(C)C)c(OC)c2)ccc1OC(=O)[C@@H](C)NC(=O)OC(C)(C)C | 58.3 |
